# Measurements as given in US20100178277A1, “METHODS AND COMPOSITIONS FOR STIMULATING CELLS” (MEDIVATION NEUROLOGY, INC., priority 2007, published 2010).
# Experiments:
# [1] = system: primary rat hippocampal neurons; experiment: Neurite outgrowth of primary rat hippocampal neurons cultured with dimebon; format: cell-based
# Protocol: To isolate hippocampal neurons, a female rat of 19 days gestation was killed by cervical dislocation, and the fetuses were removed from the uterus. Their brains were removed and placed in ice-cold medium of Leibovitz (L15, Gibco, Invitrogen). Meninges were carefully removed, and the hippocamps were dissected out. The hippocampal neurons were dissociated by trypsinization for 30 minutes at 37° C. (Trypsin-EDTA; Gibco) in the presence of DNAse I (Roche; Meylan). The reaction was stopped by the addition of DMEM (Gibco) cell culture medium with 10% of FBS (Gibco). The suspension was triturated with a 10-ml pipette using a needle syringe 21G and centrifuged at 350×g for 10 minutes at room temperature. The resulting pellet is resuspended in culture medium containing Neurobasal medium (Gibco) supplemented with 2% B27 supplement (Gibco) and 2 mM of glutamine (Gibco). Viable cells were counted in a Neubauer cytometer using the trypan blue exclusion test (Sigma) and seeded on the basis of 30,000 cells per Petri dish (Nunc) precoated with poly-L-lysine. Cells were allowed to adhere for two hours and maintained in a humidified incubator at 37° C. in 5% CO2-95% air atmosphere. After adhesion, a vehicle control or dimebon was added at different concentrations to the medium. BDNF (1.85 nM) was used as a positive control for neurite growth. After treatment, cultures were washed in phosphate-buffered saline (PBS, Gibco) and fixed in glutaraldehyde 2.5% in PBS. Cells were fixed after 3 days growth. Several pictures (˜80) of cells with neurites without any branching were taken per condition with a camera (Coolpix 995; Nikon) fixed on microscope (Nikon, objective 40×). The length measurements were made by analysis of the pictures using software from Image-Pro Plus (France). The results were expressed as mean (s.e.m.). Statistical analysis of the data was performed using one way analysis of variance (ANOVA). […]
# The effect of Dimebon (100 nM) on neurite outgrowth using primary hippocampal neurons was evaluated by measuring neurite length (expressed % of control, FIG. 5A) and number of neurites per neuron (FIG. 5B). The effects of vehicle, Dimebon and BDNF (50 ng/mL) were determined after incubations of 24 hours, 48 hours and 72 hours. […]
# (§1) Primary neuronal cultures were prepared from rat fetal tissue on the gestation days indicated from the cortex (day 17), hippocampus (day 19) or spine (day 15). […] Neurite length was calculated using Image-Pro Plus. […] Mitochondrial effects were assessed with primary rat hippocampal cells treated with Dimebon or vehicle and 0.25 μM ionomycin. Dimebon's effects on JC-1 mitochondrial staining was also assessed in ionomycin-treated human neuroblastoma cells (SK—N—SH). Mitochondrial accumulation of JC-1 was assessed by fluorescence microscopy.
# [2] = system: primary rat cortical neurons; experiment: Neurite outgrowth of primary rat cortical neurons cultured with dimebon; format: cell-based; settings: low concentrations (picomolar and nanomolar); 3 days growth; FIG. 1
# Protocol: (§2) Standard methods were used to isolate cortical neurons and spinal motor neurons. For the isolation of primary rat cortical neurons, the fetal brain from a pregnant rat at 17 days of gestation was prepared in Leibovitz's medium (L15; Gibco). The cortex was dissected out, and the meninges were removed. Trypsin (Gibco) was used to dissociate cortical neurons for 30 minutes at 37° C. with DNAse I. The cells were triturated in a 10 mL pipette in Dulbecco's Modified Eagle Media (“DMEM”; Gibco) with 10% Fetal Bovine Serum (“FBS”) (Gibco) and centrifuged at 350×g for 10 minutes at room temperature. The cells were suspended in Neurobasal medium supplemented with 2% B27 (Gibco) and 0.5 mM L-glutamine (Gibco). […] The results were expressed as mean (s.e.m.). […]
# as §1
# [3] = system: BrdU positive cells/neurons in the hippocampus and dentate gyrus; experiment: Neurogenesis in healthy rats: BrdU / NeuN immunohistochemistry of hippocampus and dentate gyrus; format: in vivo, Wistar rats; settings: 14 days
# Source text: Wistar rats were obtained from Charles River or Harlan Winkelmann (Germany). Male rats were approximately 3 months old upon arrival at the animal colony. Animals were kept in an animal facility under standardized conditions and according to the animal welfare regulations of the Ministry of Science of the Austrian government. A record of bodyweights was maintained. The animals were allowed to acclimatize for at least one week prior to any experimental manipulations. Twelve rats per group were maintained on a 12 hour light/dark cycle. Three backup animals were maintained in order to compensate for animal loss. All rats were housed in groups of four per cage and had ad libitum access to food and water. Rats were randomly allocated to four different treatment groups receiving intraperitoneal (i.p.) 5-bromo-2-deoxyuridine (BrdU, Sigma #B9285, 50 mg/kg body weight (b.w.)) and either (i) Dimebon at 10 mg/kg b.w./twice a day; (ii) Dimebon at 30 mg/kg b.w./twice a day; (iii) Dimebon at 60 mg/kg b.w./twice a day; or (iv) 0.2 mL vehicle (saline) twice a day. Treatment with BrdU, a synthetic nucleoside analog of thymidine, is commonly used to detect proliferating cells in living tissues such as the brain. Dimebon and vehicle were administered orally twice a day in a volume of 0.2 mL. BrdU was administered every other day. The daily Dimebon or vehicle treatment was performed several minutes before BrdU treatment. On day 14, animals were sacrificed approximately four hours after the last Dimebon treatment and one day after the last BrdU treatment. Diluted dimebon was prepared fresh daily. At sacrifice, the rats were sedated using standard anesthesia. After transcardial perfusion with phosphate buffered saline (PBS) followed by 4% Paraformaldehyde/PBS, the brain from each rat was carefully removed, post-fixed in 4% Paraformaldehyde/PBS for one hour, transferred to 15% sucrose for cryoprotection, and shock-frozen in liquid isopentane. Brains were stored at −80° C. until cryo-cutting. The brains were cut sagittally using a cryotome and stored at −20° C. until staining. Five layers were cut with 10 sections at 20 micrometers per layer with an interlayer slice gap of 100 micrometers. Standard Cresyl-Violett staining was performed on two consecutive slices per animal. BrdU immunohistochemistry was quantified to provide a morphological overview of cell division. For the evaluation of BrdU positive cells/neurons, sections were processed by double-incubation with mouse anti-Neuronal Nuclei (NeuN) monoclonal antibody (Chemicon) and anti-BrdU (Abcam). One section per layer was treated in a three-day double-incubation with mouse anti-Neuronal Nuclei (NeuN) monoclonal antibody 1:800 (Chemicon, Hofheim. Germany) and anti-BrdU (sheep polyclonal to BrdU) 1:500 (Abcam, Cambridge, UK). The secondary antibodies were a Cy-3-conjugated pure affine goat anti-mouse IgG (H+L) 1:200 (Jackson ImmunoResearch, Cambridgeshire, UK) and a Cy 2-conjugated pure affine F(ab′)2 fragment of donkey anti-sheep IgG (H+L) 1:100 (Jackson ImmunoResearch, Cambridgeshire, UK). Briefly, the anti-NeuN antibody was incubated overnight at 4° C., the Cy3 antibody was incubated the next day for one hour at room temperature, followed by the anti-BrdU antibody overnight at 4° C. and the Cy2 antibody for one hour at room temperature. To open the cell surfaces before the BrdU incubation, slices were treated with 2N HCl for 15 minutes at 40° C. and then washed for 20 minutes in a methanol mixture (60 ml methanol, 2 ml H2O2, and 0.6 ml Triton X) to block endogenous peroxidases. Niss1 staining was used as an overview staining. Tiled images of the sagittal slice including the cortex and the hippocampus were recorded at 200-fold magnification. Each single image used a PCO PixelFly camera mounted on a NikonE800 microscope equipped with an software controlled (StagePro) automatic table. Both fluorescent colors, red for NeuN and green for BrdU, were recorded separately. For quantification, the images were merged. […]
# [4] = system: human neuroblastoma cells (SK—N—SH); experiment: Mitochondrial JC-1 staining in ionomycin-treated SK-N-SH cells; format: cell-based
# Protocol: (§3) Primary neuronal cultures were prepared from rat fetal tissue on the gestation days indicated from the cortex (day 17), hippocampus (day 19) or spine (day 15). Neurons were dissociated by trypsinization in the presence of DNAseI and trituration and cultured in Neurobasal (Gibco) medium supplemented with 2% B27 (Gibco), 0.5 mM L-Glutamine. Cells were plated on poly L-lysine coated plates, allowed to adhere and maintained at 37° C. in 5% CO2-95% air and then test compound was added for a period of 3 days. Cultures were fixed using 2.5% glutaraldehyde. Approximately 80 digital images were taken per condition. Neurite length was calculated using Image-Pro Plus. Each analysis was performed with two separate culture studies. Dimebon was tested at concentrations of 0.01-500 nM and BDNF at 50 ng/mL. Mitochondrial effects were assessed with primary rat hippocampal cells treated with Dimebon or vehicle and 0.25 μM ionomycin. Dimebon's effects on JC-1 mitochondrial staining was also assessed in ionomycin-treated human neuroblastoma cells (SK—N—SH). Mitochondrial accumulation of JC-1 was assessed by fluorescence microscopy.
# [5] = system: primary rat spinal motor neurons; experiment: Neurite outgrowth of primary rat spinal motor neurons cultured with dimebon; format: cell-based; settings: picomolar and nanomolar concentrations; FIG. 4
# Protocol: as §2, §1
# [6] = system: primary rat hippocampal cells; experiment: Mitochondrial JC-1 staining in ionomycin-treated primary rat hippocampal cells; format: cell-based; settings: Dimebon 0.25 nM and 2.5 nM; 0.25 μM ionomycin; compared with vehicle treatment
# Protocol: as §3
compound,measurement,setting,value
"Cc1ccc2c(c1)c1c(n2CCc2ccc(C)nc2)CCN(C)C1.Cl.Cl [Dimebon, 2,8-dimethyl-5-(2-(6-methyl-3-pyridyl)-ethyl)-2,3,4,5-tetrahydro-1H-pyrido[4,3-b]indole dihydrochloride]",effect on neurite length and number of neurites per neuron relative to BDNF,"[1]; Dimebon 100 nM vs BDNF 50 ng/mL, 24, 48, 72 hours",comparable
same,neurite length,"[1]; Dimebon 100 nM, incubations of 24, 48 and 72 hours, compared to vehicle, FIG. 5A",increased
same,number of neurites per neuron,"[1]; Dimebon 100 nM, incubations of 24, 48 and 72 hours, compared to vehicle, FIG. 5B",increased
same,neurite outgrowth of primary rat hippocampal neurons,"[1]; picomolar and nanomolar concentrations, 3 days growth, FIG. 3",stimulated
same,neurite outgrowth of primary rat cortical neurons,[2],stimulated
same,BrdU positive progenitor cells in the dentate gyrus,"[3]; 30 mg/kg Dimebon vs vehicle, p=0.05, FIG. 7A",significant increase
same,BrdU positive progenitor cells in the hippocampus,"[3]; 60 mg/kg Dimebon vs vehicle-treated group, p=0.05, FIG. 6A",significant increase
same,BrdU positive neurons (NeuN and BrdU IR) in the hippocampus,"[3]; 60 mg/kg Dimebon vs vehicle-treated group, p=0.05, FIG. 6B",significant increase
same,BrdU positive progenitor cells in the dentate gyrus,"[3]; 60 mg/kg Dimebon vs vehicle-treated group, p=0.05, FIG. 7A",significant increase
same,BrdU positive neurons (NeuN and BrdU IR) in the dentate gyrus,"[3]; 60 mg/kg Dimebon vs vehicle-treated group, p=0.05, FIG. 7B",significant increase
same,total number of BrdU staining cells in the hippocampus,"[3]; rats, oral twice a day, FIG. 6A",increases
same,number of BrdU staining neurons in the hippocampus,"[3]; rats, oral twice a day, FIG. 6B",increases
same,total number of BrdU staining cells in the dentate gyrus,"[3]; rats, oral twice a day, FIG. 7A",increases
same,number of BrdU staining neurons in the dentate gyrus,"[3]; rats, oral twice a day, FIG. 7B",increases
same,mitochondrial JC-1 staining,[4],preserved
same,neurite outgrowth of primary rat spinal motor neurons,[5],stimulated
same,mitochondrial JC-1 staining,[6],preserved
